One assay concerns the target T1, GST-Flk1 (Mus musculus, UniProt P35918).
T1 construct: GST-Flk1cd purified from sf9 recombinant baculovirus transformation (SUGEN, Inc.); host or cells: Sf9 (baculovirus)
In words: GST-FLK-1 bioassay (bio flkGST), ELISA. Format: biochemical. For orientation: In an ELISA, binding on a coated surface is turned into a signal by an enzyme label.

Assay [1] concerns the target T2, PDGFR-β (NIH 3T3 cell lysate) (Homo sapiens, UniProt P09619).
T2 construct: host or cells: NIH 3T3
In words: PDGFR bioassay, ELISA. Format: biochemical. The note with it: read-out: bio PDGF IC50.
Protocol: Corning 96-well Elisa plates • 2. 28D4C10 monoclonal anti-PDGFR antibody (SUGEN, Inc.). • 3. PBS. • 4. TBST Buffer. • 5. Blocking Buffer (same as for EGFR bioassay). • 6. PDGFR-β expressing NIH 3T3 cell lysate (SUGEN, Inc.). • 7. TBS Buffer. • 8. TBS+10% DMSO. • 9. ATP. • 10. MnCl2. • 11. Kinase buffer phosphorylation mix: for 10 ml, mix 250 μl 1M TRIS, 200 μl 5M NaCl, 100 μl 1M MnCl2 and 50 μl 100 mM Triton X-100 in enough dH2O to make 10 ml. • 12. NUNC 96-well V bottom polypropylene plates. • 13. EDTA. • 14. Rabbit polyclonal anti-phosphotyrosine serum (SUGEN, Inc.). • 15. Goat anti-rabbit IgG peroxidase conjugate (Biosource Cat. No. ALI0404). • 16. ABTS. • 17. Hydrogen peroxide, 30% solution. • 18. ABTS/H2O2. • 19. 0.2 M HCl. Procedure: • 1. Coat Corning 96 well ELISA plates with 0.5 μg 28D4C10 in 100 μl PBS per well, store overnight at 4° C. • 2. Remove unbound 28D4C10 from wells by inverting plate to remove liquid. • Wash 1×with dH2O. Pat the plate on a paper towel to remove excess liquid. • 3. Add 150 μl of Blocking Buffer to each well. Incubate for 30 min. at room temperature with shaking. • 4. Wash plate 3×with deionized water, then once with TBST. Pat plate on a paper towel to remove excess liquid and bubbles. • 5. Dilute lysate in HNTG (10 μg lysate/100 μl HNTG). • 6. Add 100 μl of diluted lysate to each well. Shake at room temperature for 60 min. • 7. Wash plates as described in Step 4. • 8. Add 80 μl working kinase buffer mix to ELISA plate containing captured PDGFR. • 9. […] Add 10 μl diluted test compound to ELISA plate. To control wells, add 10 μl TBS+10% DMSO. Incubate with shaking for 30 minutes at room temperature. • 11. Add 10 μl ATP directly to all wells except negative control well (final well volume should be approximately 100 μl with 20 μM ATP in each well.) Incubate 30 minutes with shaking. • 12. Stop reaction by adding 10 μl of EDTA solution to each well. • 13. Wash 4×with deionized water, twice with TBST. • 14. Add 100 μl anti-phosphotyrosine (1:3000 dilution in TBST) per well. Incubate with shaking for 30-45 min. at room temperature. • 15. Wash as in Step 4. • 16. […] Incubate with shaking for 30 min. at room temperature. • 17. Wash as in Step 4. • 18. Add 100 μl of ABTS/H2O2 solution to each well. • 19. Incubate 10 to 30 minutes with shaking. Remove any bubbles. • 20. If necessary stop reaction with the addition of 100 μl 0.2 M HCl per well. • 21.

The next assay has as its target T3, EGFR (A431 cell lysate) (Homo sapiens, UniProt P00533).
T3 construct: A431 cell lysate (SUGEN, Inc.); host or cells: A431
In words: EGFR bioassay, ELISA. Format: biochemical. The note with it: read-out: bio EGF IC50.

Assay [2] concerns the target T4, HER-2 kinase (EGFr/HER-2 chimera/3T3-C7 cell line) (Homo sapiens, UniProt P04626).
T4 construct: fused on or other part: EGFR extracellular part, stimulated by EGF and captured by the anti-EGFR antibody SUMO1; P00533 (Epidermal growth factor receptor)
In words: Cellular HER-2 kinase assay, whole-cell ELISA. Format: cell-based. The settings on record: read-out: Her2 Kinase IC50.
Protocol: This assay is used to measure HER-2 kinase activity in whole cells in an ELISA format.
Fetal Bovine Serum (FBS, GIBCO Catalog #16000-044), heat inactivated in a water bath for 30 min. at 56° C. • 3. […] PBS. • 9. […] Corning 96-well ELISA Plates. • 12. NUNC 96-well V bottom polypropylene plates. • 13. […] SUMO 1: monoclonal anti-EGFR antibody (SUGEN, Inc.). • 15. TBST Buffer. • 16. Blocking Buffer: 5% Carnation Instant Milk® in PBS. • 17. […] Suspend powder in 100 uL of 10 mM HCl. Add 100 uL 10 mM NaOH. Add 800 uL PBS and transfer to an Eppendorf tube, store at −20° C. until ready to use. • 18. […] EDTA. • 20. Na3VO4. […] Boil in microwave for one minute (solution becomes clear). • Cool to room temperature. Adjust pH to 10. Repeat heating/cooling cycle until pH remains at 10. • 21. 200 mM Na4P2O7. • 22. Rabbit polyclonal antiserum specific for phosphotyrosine (anti-Ptyr antibody, SUGEN, Inc.). • 23. Affinity purified antiserum, goat anti-rabbit IgG antibody, peroxidase conjugate (Biosource Cat #ALI0404). • 24. ABTS Solution. • 25. 30% Hydrogen peroxide solution. • 26. ABTS/H2O2. • 27. 0.2 M HCl. Procedure: • 1. Coat Corning 96 well ELISA plates with SUMO1 at 1.0 ug per well in PBS, 100 ul final volume/well. Store overnight at 4° C. • 2. On day of use, remove coating buffer and wash plate 3 times with dH2O and once with TBST buffer. All washes in this assay should be done in this manner, unless otherwise specified. • 3. Add 100 ul of Blocking Buffer to each well. Incubate plate, with shaking, for 30 min. at room temperature. Just prior to use, wash plate. • 4. Use EGFr/HER-2 chimera/3T3-C7 cell line for this assay. • 5. Choose dishes having 80-90% confluence. Collect cells by trypsinization and centrifuge at 1000 rpm at room temperature for 5 min. • 6. Resuspend cells in starve medium and count with trypan blue. Viability above 90% is required. Seed cells in starve medium at a density of 2,500 cells per well, 90 ul per well, in a 96 well microtiter plate. Incubate seeded cells overnight at 37° under 5% CO2. • 7. Start the assay two days after seeding. • 8. Test compounds are dissolved in 4% DMSO. Samples are then further diluted directly on plates with starve-DMEM. Typically, this dilution will be 1:10 or greater. […] Incubate at 37° C. for 10 min. • 13. Remove test compound, EGF, and DMEM. Wash cells once with PBS. • 14. Transfer HNTG* to cells, 100 ul per well. Place on ice for 5 minutes. • Meanwhile, remove blocking buffer from ELISA plate and wash. • 15. Scrape cells from plate with a micropipettor and homogenize cell material by repeatedly aspirating and dispensing the HNTG* lysis buffer. Transfer lysate to a coated, blocked, washed ELISA plate. Or, use a Costar transfer cartridge to transfer lysate to the plate. • 16. Incubate, with shaking, at room temperature for 1 hr. • 17. Remove lysate, wash. Transfer freshly diluted anti-Ptyr antibody (1:3000 in TBST) to ELISA plate, 100 ul per well. • 18. Incubate, with shaking, at room temperature, for 30 min. • 19. Remove anti-Ptyr antibody, wash. Transfer freshly diluted BIOSOURCE antibody to ELISA plate (1:8000 in TBST, 100 ul per well). • 20. Incubate, with shaking, at room temperature for 30 min. • 21. Remove BIOSOURCE antibody, wash. Transfer freshly prepared ABTS/H2O2 solution to ELISA plate, 100 ul per well. • 22. […] Remove any bubbles. • 23. Stop reaction with the addition of 100 ul of 0.2M HCl per well. • 24.

Usually IC50 stands for the concentration at which inhibition is half-maximal.

T1 sequence (P35918 784-1345 limits assumed): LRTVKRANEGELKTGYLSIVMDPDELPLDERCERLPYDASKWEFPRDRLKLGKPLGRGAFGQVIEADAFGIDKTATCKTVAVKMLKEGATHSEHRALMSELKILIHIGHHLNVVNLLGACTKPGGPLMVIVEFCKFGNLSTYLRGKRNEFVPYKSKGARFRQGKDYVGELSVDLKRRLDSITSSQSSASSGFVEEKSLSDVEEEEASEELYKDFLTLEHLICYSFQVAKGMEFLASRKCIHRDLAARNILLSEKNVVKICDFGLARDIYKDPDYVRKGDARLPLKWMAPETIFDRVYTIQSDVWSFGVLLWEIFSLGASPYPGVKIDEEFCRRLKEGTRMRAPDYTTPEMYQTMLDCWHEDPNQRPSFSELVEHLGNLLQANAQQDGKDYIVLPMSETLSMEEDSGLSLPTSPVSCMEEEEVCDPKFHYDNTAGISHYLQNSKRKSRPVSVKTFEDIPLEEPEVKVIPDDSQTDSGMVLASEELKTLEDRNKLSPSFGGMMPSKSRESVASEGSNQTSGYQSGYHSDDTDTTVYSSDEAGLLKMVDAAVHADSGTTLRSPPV
T3 sequence (P00533 25-1210): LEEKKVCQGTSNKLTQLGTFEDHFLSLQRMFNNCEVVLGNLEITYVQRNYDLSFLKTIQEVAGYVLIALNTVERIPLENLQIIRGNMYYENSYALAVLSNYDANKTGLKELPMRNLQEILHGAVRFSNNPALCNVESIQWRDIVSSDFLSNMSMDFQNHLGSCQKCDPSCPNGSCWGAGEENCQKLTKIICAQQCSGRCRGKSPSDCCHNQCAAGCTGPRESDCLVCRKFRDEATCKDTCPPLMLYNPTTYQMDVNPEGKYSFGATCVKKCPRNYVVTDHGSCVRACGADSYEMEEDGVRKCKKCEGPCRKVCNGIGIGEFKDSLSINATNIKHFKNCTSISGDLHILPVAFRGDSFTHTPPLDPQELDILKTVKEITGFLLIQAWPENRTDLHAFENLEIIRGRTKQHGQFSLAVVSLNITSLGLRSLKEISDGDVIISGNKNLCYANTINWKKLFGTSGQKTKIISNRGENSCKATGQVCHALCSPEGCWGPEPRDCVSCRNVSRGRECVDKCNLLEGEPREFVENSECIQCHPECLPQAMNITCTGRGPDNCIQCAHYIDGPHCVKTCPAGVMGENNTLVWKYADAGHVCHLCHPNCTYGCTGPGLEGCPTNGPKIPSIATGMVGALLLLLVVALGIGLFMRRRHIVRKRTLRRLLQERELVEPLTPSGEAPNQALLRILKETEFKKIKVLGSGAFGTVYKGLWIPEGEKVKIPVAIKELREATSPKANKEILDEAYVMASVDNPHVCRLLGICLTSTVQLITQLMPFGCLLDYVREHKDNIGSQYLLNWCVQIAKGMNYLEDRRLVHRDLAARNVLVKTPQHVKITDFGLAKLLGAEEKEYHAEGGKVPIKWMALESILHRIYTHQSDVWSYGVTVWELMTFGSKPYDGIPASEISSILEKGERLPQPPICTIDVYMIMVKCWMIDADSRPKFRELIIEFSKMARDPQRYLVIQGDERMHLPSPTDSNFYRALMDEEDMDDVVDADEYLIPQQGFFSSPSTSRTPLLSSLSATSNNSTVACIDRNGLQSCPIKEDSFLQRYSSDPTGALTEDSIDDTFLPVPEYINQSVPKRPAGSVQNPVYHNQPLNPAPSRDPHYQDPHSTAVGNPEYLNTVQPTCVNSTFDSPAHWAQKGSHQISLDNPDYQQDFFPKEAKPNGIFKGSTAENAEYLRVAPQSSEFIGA
T2 sequence (P09619 33-1106): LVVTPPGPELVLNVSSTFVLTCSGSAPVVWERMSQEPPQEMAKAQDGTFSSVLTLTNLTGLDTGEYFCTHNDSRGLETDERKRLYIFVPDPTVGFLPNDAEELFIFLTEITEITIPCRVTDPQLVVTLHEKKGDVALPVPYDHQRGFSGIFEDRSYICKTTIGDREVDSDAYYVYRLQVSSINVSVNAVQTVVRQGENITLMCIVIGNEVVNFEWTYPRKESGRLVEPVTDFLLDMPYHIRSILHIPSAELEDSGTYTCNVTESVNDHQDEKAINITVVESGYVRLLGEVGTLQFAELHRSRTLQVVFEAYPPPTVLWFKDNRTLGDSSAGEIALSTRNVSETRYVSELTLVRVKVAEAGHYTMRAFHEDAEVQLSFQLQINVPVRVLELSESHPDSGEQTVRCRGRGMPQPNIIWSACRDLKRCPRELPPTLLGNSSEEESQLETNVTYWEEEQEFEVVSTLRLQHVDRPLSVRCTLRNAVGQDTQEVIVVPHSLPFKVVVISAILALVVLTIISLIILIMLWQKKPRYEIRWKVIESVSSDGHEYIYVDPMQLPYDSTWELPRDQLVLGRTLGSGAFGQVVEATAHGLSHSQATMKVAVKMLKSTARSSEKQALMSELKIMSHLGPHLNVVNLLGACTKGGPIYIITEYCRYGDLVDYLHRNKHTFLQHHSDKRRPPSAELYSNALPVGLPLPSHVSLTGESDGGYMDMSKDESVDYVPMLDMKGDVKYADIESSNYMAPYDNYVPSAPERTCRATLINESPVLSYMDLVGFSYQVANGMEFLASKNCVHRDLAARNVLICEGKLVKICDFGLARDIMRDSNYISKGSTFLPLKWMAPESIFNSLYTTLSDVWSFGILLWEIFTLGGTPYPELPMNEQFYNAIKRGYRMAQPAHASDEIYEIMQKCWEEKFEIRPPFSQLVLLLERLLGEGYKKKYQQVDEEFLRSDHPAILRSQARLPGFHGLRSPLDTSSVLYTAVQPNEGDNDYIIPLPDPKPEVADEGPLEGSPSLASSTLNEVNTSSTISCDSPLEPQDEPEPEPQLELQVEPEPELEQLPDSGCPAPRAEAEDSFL
T4 sequence (P04626 720-987 limits assumed, change not shown): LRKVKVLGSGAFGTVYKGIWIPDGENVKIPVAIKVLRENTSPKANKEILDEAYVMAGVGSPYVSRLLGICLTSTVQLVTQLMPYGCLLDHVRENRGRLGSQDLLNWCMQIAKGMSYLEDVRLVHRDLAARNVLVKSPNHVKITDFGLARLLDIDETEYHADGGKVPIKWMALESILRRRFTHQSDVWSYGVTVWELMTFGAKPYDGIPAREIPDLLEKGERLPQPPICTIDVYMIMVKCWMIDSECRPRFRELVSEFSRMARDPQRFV
Protocol for EGFR (A431 cell lysate): This assay is used to the in vitro kinase activity of FGF1-R in an ELISA assay.
Corning 96-well Elisa plates. • 2. SUMOL1 monoclonal anti-EGFR antibody (SUGEN, Inc.). • 3. PBS • 4. TBST Buffer • 5. Blocking Buffer: for 100 ml, mix 5.0 g Carnation Instant Non-fat Milk® with 100 ml of PBS. • 6. A431 cell lysate (SUGEN, Inc.). • 7. TBS Buffer: • 8.
bring to 1 liter total volume with dH2O. • 9. […] This reagent should be made up immediately prior to use and kept on ice. • 10. 1.0 mM MnCl2. • 11. […] Prepare just prior to use, keep on ice. • 12. NUNC 96-well V bottom polypropylene plates. • 13. EDTA. • 14. Rabbit polyclonal anti-phosphotyrosine serum (SUGEN, Inc.). • 15. Goat anti-rabbit IgG peroxidase conjugate (Biosource Cat. No. ALI0404). • 16. ABTS. • 17. 30% Hydrogen peroxide. • 18. ABTS/H2O2 • 19. 0.2 M HCl. Procedure: • 1. Coat Corning 96 well ELISA plates with 0.5 μg SUMO1 in 100 μl PBS per well, store overnight at 4° C. • 2. Remove unbound SUMO1 from wells by inverting plate to remove liquid. Wash 1×with dH2O. Pat the plate on a paper towel to remove excess liquid. • 3. Add 150 μl of Blocking Buffer to each well. Incubate, with shaking, for 30 min. at room temperature. • 4. Wash plate 3×with deionized water, then once with TBST. Pat plate on a paper towel to remove excess liquid and bubbles. • 5. Dilute lysate in PBS (7 μg lysate/100 μl PBS). • 6. Add 100 μl of diluted lysate to each well. Shake at room temperature for 1 hr. • 7. Wash plates as in 4, above. • 8. Add 120 μl TBS to ELISA plate containing captured EGFR. • 9. […] Add 13.5 μl diluted test compound to ELISA plate. To control wells, add 13.5 μl TBS in 10% DMSO. • 11. Incubate, with shaking, for 30 minutes at room temperature. • 12. Add 15 μl phosphorylation mix to all wells except negative control well. Final well volume should be approximately 150 μl with 3 μM ATP/5 mM MnCl2 final concentration in each well. Incubate with shaking for 5 minutes. • 13. Stop reaction by adding 16.5 μl of EDTA solution while shaking. Shake for additional 1 min. • 14. Wash 4×with deionized water, 2×with TBST. • 15. Add 100 μl anti-phosphotyrosine (1:3000 dilution in TBST) per well. Incubate, with shaking, for 30-45 min. at room temperature. • 16. Wash as in 4, above. • 17. […] Incubate with shaking for 30 min. at room temperature. • 18. Wash as in 4, above. • 19. Add 100 μl of ABTS/H2O2 solution to each well. • 20. Incubate 5 to 10 minutes with shaking. Remove any bubbles. • 21. If necessary, stop reaction by adding 100 μl 0.2 M HCl per well. • 22.
Protocol for GST-Flk1: This assay analyzes the tyrosine kinase activity of GST-Flk1 on poly(glu,tyr) peptides.
• 1. […] Preparation of poly(glu,tyr)(pEY) coated assay plates: Coat 2 ug/well of poly(glu,tyr)(pEY) in 100 ul PBS, hold at room temperature for 2 hours or at 4° C. overnight. Cover plates well to prevent evaporation. • 4. […] When all reagents have dissolved, adjust the pH to 7.2 with HCl. Bring total volume to 1 L with dH2O. • 5. PBST Buffer: to 1 L of PBS Buffer, add 1.0 ml Tween-20. • 6. […] Adjust pH to 7.2 with HCl. Add 10 g BSA, stir to dissolve. Bring total volume to 1 L with dH2O. Filter to remove particulate matter. • 7. […] Adjust total volume to 1 L with PBS buffer, filter to remove particulate matter. • 8. 50 mM Hepes pH 7.5. • 9. GST-Flk1cd purified from sf9 recombinant baculovirus transformation (SUGEN, Inc.). • 10. 4% DMSO in dH2O. • 11. 10 mM ATP in dH2O. • 12. 40 mM MnCl2 • 13. […] Add 10 N NaOH until EDTA dissolves. Adjust pH to 8.0. Adjust total volume to 100 ml with dH2O. • 16. […] Anti-phosphotyrosine monoclonal antibody conjugated to horseradish peroxidase (PY99 HRP, Santa Cruz Biotech). • 18. 2,2′-Azinobis(3-ethylbenzthiazoline-6-sulfonic acid (ABTS, Moss, Cat. No. ABST). • 19. 10% SDS. Procedure: • 1. Coat Corning 96-well ELISA plates with 2 μg of polyEY peptide in sterile PBS as described in step 3 of Materials and Reagents. • 2. Remove unbound liquid from wells by inverting plate. Wash once with TBST. Pat the plate on a paper towel to remove excess liquid. • 3. Add 100 μl of 1% BSA in PBS to each well. Incubate, with shaking, for 1 hr. at room temperature. • 4. Repeat step 2. • 5. Soak wells with 50 mM HEPES (pH 7.5) (150 μl/well). • 6. Dilute test compound with dH2O/4% DMSO to 4 times the desired final assay concentration in 96-well polypropylene plates. • 7. Add 25 μl diluted test compound to ELISA plate. In control wells, place 25 μl of dH2O/4% DMSO. • 8. […] Add 25 μl 0.5M EDTA to negative control wells. • 10. Dilute GST-Flk1 to 0.005 μg (5 ng)/well with KDB. • 11. Add 50 μl of diluted enzyme to each well. • 12. Incubate, with shaking, for 15 minutes at room temperature. • 13. […] Wash 3×with TBST and pat plate on paper towel to remove excess liquid. • 15. […] Incubate, with shaking, for 90 min. at room temperature. • 16. Wash as in step 14. • 17. Add 100 μl of room temperature ABTS solution to each well. • 18. […] Remove any bubbles. • 19. Stop reaction by adding 20 μl of 10% SDS to each well. • 20.

As for `CC(=O)c1c(/C=C2\C(=O)Nc3ccc(Br)cc32)[nH]c(C(=O)NCCCN2CCOCC2)c1C` [Example 31, 4-Acetyl-5-(5-bromo-2-oxo-1,2-dihydroindol-3-ylidenemethyl)-3-methyl-1H-pyrrole-2-carboxylic Acid (3-morpholin-4-ylpropyl)amide], the IC50 is greater than 50 µM at GST-Flk1 and greater than 100 µM in assay [1].

Regarding `Cc1[nH]c(/C=C2\C(=O)Nc3ccc(Cl)cc32)c(C)c1C(=O)NCCN(C)C` [Example 50, 5-(5-Chloro-2-oxo-1,2-dihydroindol-3-ylidenemethyl)-2,4-dimethyl-1H-pyrrole-3-carboxylic Acid (2-dimethylamino-ethyl)amide], the IC50 in assay [1] was less than 0.78 µM; at EGFR (A431 cell lysate), greater than 100 µM; in assay [2], greater than 100 µM.

Turning to `COc1ccccc1-c1ccc2c(c1)NC(=O)/C2=C\c1[nH]c(C)c(C(=O)NCCN(C)C)c1C` [Example 54, 5-[6-(2-Methoxyphenyl)-2-oxo-1,2-dihydroindol-3-ylidenemethyl]-2,4-dimethyl-1H-pyrrole-3-carboxylic Acid (2-dimethylaminoethyl)amide], the IC50 in assay [1] is less than 0.78 µM.

As for `CCN(CC)CCCNC(=O)c1c(C)[nH]c(/C=C2\C(=O)Nc3cccc(C(=O)Nc4ccc(OC)c(Cl)c4)c32)c1C` [Example 69, 3-[4-(3-Diethylaminopropylcarbamoyl)-3,5-dimethyl-1H-pyrrol-2-ylmethylene]-2-oxo-2,3-dihydro-1H-indole-4-carboxylic Acid (3-chloro-4-methoxyphenyl)amide], the IC50 (at EGFR (A431 cell lysate); in assay [2]) was greater than 100 µM throughout.

For the molecule `COc1ccccc1-c1ccc2c(c1)NC(=O)/C2=C\c1[nH]c(C)c(C(=O)NCCN2CCCC2)c1-c1ccccc1` [Example 43, 5-[6-(2-Methoxyphenyl)-2-oxo-1,2-dihydroindol-3-ylidenemethyl]-2-methyl-4-phenyl-1H-pyrrole-3-carboxylic Acid (2-pyrrolidin-1-ylethyl)amide], the IC50 on EGFR (A431 cell lysate) is greater than 100 µM.

Turning to `CCOC(=O)CNC(=O)c1c[nH]c(/C=C2\C(=O)Nc3ccc(S(=O)(=O)NC)cc32)c1C` [Example 117, {[4-Methyl-5-(5-methylsulfamoyl-2-oxo-1,2-dihydro-indol-3-ylidenemethyl)-1H-pyrrole-3-carbonyl]-amino}-acetic Acid Ethyl Ester], the IC50 (at EGFR (A431 cell lysate); in assay [2]) was greater than 100 µM each time.

Regarding `CCN(CC)CCCNC(=O)c1[nH]c(/C=C2\C(=O)Nc3ccc(OC)cc32)cc1C` [Example 15, 5-(5-Methoxy-2-oxo-1,2-dihydroindol-3-ylidenemethyl)-3-methyl-1H-pyrrole-2-carboxylic Acid (3-diethylamino-propyl)amide], the IC50 at GST-Flk1 is greater than 20 µM; in assay [1], greater than 100 µM; at EGFR (A431 cell lysate), greater than 100 µM.

For the molecule `Cc1c(C(=O)NCCCN2CCOCC2)[nH]c(/C=C2\C(=O)Nc3ccc(Br)cc32)c1C(=O)c1ccccc1` [Example 22, 4-Benzoyl-5-(5-bromo-2-oxo-1,2-dihydroindol-3-ylidenemethyl)-3-methyl-1H-pyrrole-2-carboxylic Acid (3-morpholin-4-ylpropyl)amide], the half-inhibitory concentration (IC50) at GST-Flk1 was greater than 20 µM; in assay [1] it was greater than 100 µM; at EGFR (A431 cell lysate), greater than 100 µM.

`CCN(CC)CCCNC(=O)c1c(C)[nH]c(/C=C2\C(=O)Nc3cc(-c4ccccc4)ccc32)c1C` [Example 68, 2,4-Dimethyl-5-(2-oxo-6-phenyl-1,2-dihydroindol-3-ylidenemethyl)-1H-pyrrole-3-carboxylic Acid (3-diethylaminopropyl)amide]: the IC50 at EGFR (A431 cell lysate) is greater than 100 µM.

With `Cc1[nH]c(/C=C2\C(=O)Nc3ccc(S(=O)(=O)Nc4ccccc4)cc32)c(C)c1C(=O)N1CCN(C)CC1` [Example 86, 3-[3,5-Dimethyl-4-(4-methylpiperazine-1-carbonyl)-1H-pyrrol-2-ylmethylene]-2-oxo-2,3-dihydro-1H-indole-5-sulfonic Acid Phenylamide], in assay [2], the half-inhibitory concentration (IC50) was greater than 100 µM.

Turning to `Cc1[nH]c(/C=C2\C(=O)Nc3ccc(S(=O)(=O)N(C)C)cc32)c(C)c1C(=O)NCCN1CCCC1` [Example 82, 5-(5-Dimethylsulfamoyl-2-oxo-1,2-dihydroindol-3-ylidenemethyl)-2,4-dimethyl-1H-pyrrole-3-carboxylic Acid (2-pyrrolidin-1-ylethyl)amide], the half-inhibitory concentration (IC50) (on EGFR (A431 cell lysate); in assay [2]) was greater than 100 µM each time.

With `COc1ccccc1-c1ccc2c(c1)NC(=O)/C2=C\c1[nH]c(C)c(C(=O)NCCN(C)C)c1-c1ccccc1` [Example 45, 5-[6-(2-Methoxyphenyl)-2-oxo-1,2-dihydroindol-3-ylidenemethyl]-2-methyl-4-phenyl-1H-pyrrole-3-carboxylic Acid (2-dimethylaminoethyl)amide], the IC50 (in assay [1]; on EGFR (A431 cell lysate); in assay [2]) was greater than 100 µM in each case.

As to `Cc1c(C(=O)NCCCN2CCCC2)[nH]c(/C=C2\C(=O)Nc3cc(-c4ccccc4)ccc32)c1C(=O)c1ccccc1` [Example 25, 4-Benzoyl-3-methyl-5-(2-oxo-6-phenyl-1,2-dihydroindol-3-ylidenemethyl)-1H-pyrrole-2-carboxylic Acid (3-pyrrolidin-1-ylpropyl)amide], the 50% inhibitory concentration (IC50) in assay [1] is greater than 100 µM.

For `CCN(CC)CCNC(=O)c1c(C)[nH]c(/C=C2\C(=O)Nc3ccc(S(=O)(=O)N(C)C)cc32)c1C` [Example 87, 5-(5-Dimethylsulfamoyl-2-oxo-1,2-dihydroindol-3-ylidenemethyl)-2,4-dimethyl-1H-pyrrole-3-carboxylic Acid (2-diethylaminoethyl)amide], the concentration for half-maximal inhibition (IC50) at EGFR (A431 cell lysate) is greater than 100 µM.

As for `Cc1c(C(=O)NCCCN2CCCC2)[nH]c(/C=C2\C(=O)Nc3ccc(Br)cc32)c1C(=O)c1ccccc1` [Example 24, 4-Benzoyl-5-(5-bromo-2-oxo-1,2-dihydroindol-3-ylidenemethyl)-3-methyl-1H-pyrrole-2-carboxylic Acid (3-pyrrolidin-1-ylpropyl)amide], the IC50 in assay [1] was greater than 100 µM.

Consider `Cc1[nH]c(/C=C2\C(=O)Nc3cc(-c4ccccc4)ccc32)c(C)c1C(=O)NCCN(C)C` [Example 49, 2,4-Dimethyl-5-(2-oxo-6-phenyl-1,2-dihydroindol-3-ylidenemethyl)-1H-pyrrole-3-carboxylic Acid (2-dimethylaminoethyl)amide], for which the figures for the IC50 (in assay [1]; at EGFR (A431 cell lysate); in assay [2]) were less than 0.78 µM, greater than 100 µM and greater than 100 µM, respectively.

`CCN(CC)CCCNC(=O)c1[nH]c(/C=C2\C(=O)Nc3cc(OC)ccc32)cc1C` [Example 16, 5-(6-Methoxy-2-oxo-1,2-dihydroindol-3-ylidenemethyl)-3-methyl-1H-pyrrole-2-carboxylic Acid (3-diethylamino-propyl)amide]: the half-maximal inhibitory concentration (IC50) at GST-Flk1 is greater than 20 µM; at EGFR (A431 cell lysate), greater than 100 µM.

As for `Cc1cc(C(=O)NCCCN2CCCC2)[nH]c1/C=C1\C(=O)Nc2ccc(Br)cc21` [Example 6, 5-(5-Bromo-2-oxo-1,2-dihydroindol-3-ylidenemethyl)-4-methyl-1H-pyrrole-2-carboxylic Acid (3-pyrrolidin-1-yl-propyl)amide], the 50% inhibitory concentration (IC50) in assay [1] is greater than 100 µM.

For the molecule `CCN(CC)CCNC(=O)c1c(C(C)C)[nH]c(/C=C2\C(=O)Nc3ccc(Br)cc32)c1C(C)C` [Example 71], the IC50 on EGFR (A431 cell lysate) was greater than 100 µM.

Values taken from patent US7320996B2, “Indolinone protein kinase inhibitors and cyclooxygenase inhibitors for use in combination therapy for the treatment of cancer” (Sugen, Inc, priority 2001, dated 2008).
